Key:
Assay in all cases: Radiometric kinase panel
Type in all cases: biochemical
LYN = target: T1, LYN (Homo sapiens, UniProt P07948)
T1 construct: either as full-length or enzymatically active fragments; purchased ProQinase GmbH (Reaction Biology)
In short: (§1)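 Activity was measured radiometrically from [gamma-33P]-ATP incorporation into substrate. The kinases were recombinant human GST- or His-tagged proteins, full-length or active fragments, expressed in Sf9 or E. coli. Compound in 10% DMSO was added before the enzyme/substrate mix, which started the reaction.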

DYRK3 = target: T2, DYRK3 (Homo sapiens, UniProt O43781)
T2 construct: either as full-length or enzymatically active fragments; purchased ProQinase GmbH (Reaction Biology)
In short: as §1

MATK = target: T3, MATK (Homo sapiens, UniProt P42679)
T3 construct: purchased ProQinase GmbH (Reaction Biology)
In short: as §1

CSF1R = target: T4, CSF1R (Homo sapiens, UniProt P07333)
T4 construct: either as full-length or enzymatically active fragments; purchased ProQinase GmbH (Reaction Biology); host or cells: Sf9 insect cells or E. coli
In short: as §1

ARK5 = target: T5, ARK5 (Homo sapiens, UniProt O60285)
T5 construct: either as full-length or enzymatically active fragments; purchased ProQinase GmbH (Reaction Biology); host or cells: Sf9 insect cells or E. coli (not specified per kinase)
In short: as §1

JAK1 = target: T6, JAK1 (Homo sapiens, UniProt P23458)
T6 construct: purchased ProQinase GmbH (Reaction Biology)
In short: as §1

CDK20/CycT1 = target: T7, CDK20/CycT1 (Homo sapiens, UniProt Q8IZL9)
T7 construct: either as full-length or enzymatically active fragments; purchased ProQinase GmbH (Reaction Biology)
In short: as §1

TRKC = target: T8, TRKC (Homo sapiens, UniProt Q16288)
T8 construct: either as full-length or enzymatically active fragments; purchased ProQinase GmbH (Reaction Biology)
In short: as §1

MST2 = target: T9, MST2 (Homo sapiens, UniProt Q13188)
T9 construct: purchased ProQinase GmbH (Reaction Biology)
In short: as §1

EPHB2 = target: T10, EPHB2 (Homo sapiens, UniProt P29323)
T10 construct: purchased ProQinase GmbH (Reaction Biology); host or cells: Sf9 insect cells or E. coli (not specified per kinase)
In short: as §1

TGFBR2 = target: T11, TGFBR2 (Homo sapiens, UniProt P37173)
T11 construct: either as full-length or enzymatically active fragments; purchased ProQinase GmbH (Reaction Biology)
T11 sequence (P37173 23-567): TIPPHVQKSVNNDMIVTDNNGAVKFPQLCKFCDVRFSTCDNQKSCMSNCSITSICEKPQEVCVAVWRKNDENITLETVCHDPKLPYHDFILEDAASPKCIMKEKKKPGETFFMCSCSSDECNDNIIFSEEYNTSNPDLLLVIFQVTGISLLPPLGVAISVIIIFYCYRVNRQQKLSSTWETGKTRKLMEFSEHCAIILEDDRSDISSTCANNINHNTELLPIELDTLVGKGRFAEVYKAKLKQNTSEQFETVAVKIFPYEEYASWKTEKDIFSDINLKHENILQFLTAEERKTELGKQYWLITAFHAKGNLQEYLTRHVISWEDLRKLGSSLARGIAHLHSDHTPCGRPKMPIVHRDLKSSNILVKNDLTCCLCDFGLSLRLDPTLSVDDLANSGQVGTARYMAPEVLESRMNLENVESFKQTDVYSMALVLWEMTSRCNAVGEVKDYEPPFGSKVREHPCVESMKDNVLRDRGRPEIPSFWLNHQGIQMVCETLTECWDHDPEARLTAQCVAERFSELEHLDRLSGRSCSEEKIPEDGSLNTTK
In short: as §1

SAK = target: T12, SAK (Homo sapiens, UniProt O00444)
T12 construct: either as full-length or enzymatically active fragments; purchased ProQinase GmbH (Reaction Biology)
In short: as §1

SIK2 = target: T13, SIK2 (Homo sapiens, UniProt Q9H0K1)
T13 construct: either as full-length or enzymatically active fragments; purchased ProQinase GmbH (Reaction Biology)
In short: as §1

FGR = target: T14, FGR (Homo sapiens, UniProt P09769)
T14 construct: purchased ProQinase GmbH (Reaction Biology)
T14 sequence (P09769 whole entry): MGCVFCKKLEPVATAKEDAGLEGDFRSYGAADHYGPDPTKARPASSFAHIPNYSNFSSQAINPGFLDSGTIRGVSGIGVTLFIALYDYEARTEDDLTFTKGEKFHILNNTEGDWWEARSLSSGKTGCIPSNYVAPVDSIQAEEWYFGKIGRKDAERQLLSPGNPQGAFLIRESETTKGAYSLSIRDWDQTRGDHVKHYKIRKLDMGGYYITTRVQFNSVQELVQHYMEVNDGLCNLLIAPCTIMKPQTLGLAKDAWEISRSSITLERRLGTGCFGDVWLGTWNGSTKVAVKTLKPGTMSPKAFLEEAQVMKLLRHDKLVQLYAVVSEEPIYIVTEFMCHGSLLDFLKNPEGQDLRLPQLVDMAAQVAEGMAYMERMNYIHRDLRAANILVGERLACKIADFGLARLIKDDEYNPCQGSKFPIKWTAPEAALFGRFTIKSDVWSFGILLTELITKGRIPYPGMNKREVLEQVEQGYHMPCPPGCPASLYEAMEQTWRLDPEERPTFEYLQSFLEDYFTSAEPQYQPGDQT
In short: as §1

JNK1 = target: T15, JNK1 (Homo sapiens, UniProt P45983)
T15 construct: either as full-length or enzymatically active fragments; purchased ProQinase GmbH (Reaction Biology)
T15 sequence (P45983 whole entry, the tested form may be a part): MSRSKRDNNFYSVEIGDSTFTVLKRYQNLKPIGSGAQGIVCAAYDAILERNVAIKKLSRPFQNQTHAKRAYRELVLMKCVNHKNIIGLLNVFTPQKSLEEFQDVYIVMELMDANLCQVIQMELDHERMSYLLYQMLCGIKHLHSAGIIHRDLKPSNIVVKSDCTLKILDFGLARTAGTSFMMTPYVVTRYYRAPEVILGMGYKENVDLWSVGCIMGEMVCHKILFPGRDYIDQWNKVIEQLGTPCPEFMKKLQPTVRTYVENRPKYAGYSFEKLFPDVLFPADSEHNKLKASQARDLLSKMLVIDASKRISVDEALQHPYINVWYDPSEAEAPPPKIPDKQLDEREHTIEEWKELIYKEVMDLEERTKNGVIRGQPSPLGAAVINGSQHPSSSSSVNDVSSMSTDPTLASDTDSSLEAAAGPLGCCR
In short: as §1

PKCdelta = target: T16, PKCdelta (Homo sapiens, UniProt Q05655)
T16 construct: purchased ProQinase GmbH (Reaction Biology)
In short: as §1

VEGFR2 = target: T17, VEGFR2 (Homo sapiens, UniProt P35968)
T17 construct: either as full-length or enzymatically active fragments; purchased ProQinase GmbH (Reaction Biology); host or cells: Sf9 insect cells or E. coli
In short: as §1

MKK6 SDTD = target: T18, MKK6 SDTD (Homo sapiens, UniProt P52564, S207D/T211D)
T18 construct: either as full-length or enzymatically active fragments; purchased ProQinase GmbH (Reaction Biology); host or cells: Sf9 insect cells or E. coli (not specified per kinase)
In short: as §1

PKCbeta2 = target: T19, PKCbeta2 (Homo sapiens, UniProt P05771)
T19 construct: either as full-length or enzymatically active fragments; purchased ProQinase GmbH (Reaction Biology)
In short: as §1

NEK7 = target: T20, NEK7 (Homo sapiens, UniProt Q8TDX7)
T20 construct: either as full-length or enzymatically active fragments; purchased ProQinase GmbH (Reaction Biology); host or cells: Sf9 insect cells or E. coli
T20 sequence (Q8TDX7 whole entry, the tested form may be a part): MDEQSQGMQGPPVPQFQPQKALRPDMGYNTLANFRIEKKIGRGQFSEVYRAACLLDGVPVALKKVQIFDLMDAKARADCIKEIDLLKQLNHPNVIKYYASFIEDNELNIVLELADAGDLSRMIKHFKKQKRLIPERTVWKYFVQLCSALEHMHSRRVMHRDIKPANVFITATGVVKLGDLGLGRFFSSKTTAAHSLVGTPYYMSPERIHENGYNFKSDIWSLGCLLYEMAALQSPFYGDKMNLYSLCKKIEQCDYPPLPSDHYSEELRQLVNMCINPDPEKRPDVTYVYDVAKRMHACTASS
In short: as §1

EPHA1 = target: T21, EPHA1 (Homo sapiens, UniProt P21709)
T21 construct: either as full-length or enzymatically active fragments; purchased ProQinase GmbH (Reaction Biology)
In short: as §1

FGFR2 = target: T22, FGFR2 (Homo sapiens, UniProt P21802)
T22 construct: purchased ProQinase GmbH (Reaction Biology); host or cells: Sf9 insect cells or E. coli (not specified per kinase)
In short: as §1

JAK3 = target: T23, JAK3 (Homo sapiens, UniProt P52333)
T23 construct: purchased ProQinase GmbH (Reaction Biology)
In short: as §1

MERTK = target: T24, MERTK (Homo sapiens, UniProt Q12866)
T24 construct: either as full-length or enzymatically active fragments; purchased ProQinase GmbH (Reaction Biology)
T24 sequence (Q12866 21-999): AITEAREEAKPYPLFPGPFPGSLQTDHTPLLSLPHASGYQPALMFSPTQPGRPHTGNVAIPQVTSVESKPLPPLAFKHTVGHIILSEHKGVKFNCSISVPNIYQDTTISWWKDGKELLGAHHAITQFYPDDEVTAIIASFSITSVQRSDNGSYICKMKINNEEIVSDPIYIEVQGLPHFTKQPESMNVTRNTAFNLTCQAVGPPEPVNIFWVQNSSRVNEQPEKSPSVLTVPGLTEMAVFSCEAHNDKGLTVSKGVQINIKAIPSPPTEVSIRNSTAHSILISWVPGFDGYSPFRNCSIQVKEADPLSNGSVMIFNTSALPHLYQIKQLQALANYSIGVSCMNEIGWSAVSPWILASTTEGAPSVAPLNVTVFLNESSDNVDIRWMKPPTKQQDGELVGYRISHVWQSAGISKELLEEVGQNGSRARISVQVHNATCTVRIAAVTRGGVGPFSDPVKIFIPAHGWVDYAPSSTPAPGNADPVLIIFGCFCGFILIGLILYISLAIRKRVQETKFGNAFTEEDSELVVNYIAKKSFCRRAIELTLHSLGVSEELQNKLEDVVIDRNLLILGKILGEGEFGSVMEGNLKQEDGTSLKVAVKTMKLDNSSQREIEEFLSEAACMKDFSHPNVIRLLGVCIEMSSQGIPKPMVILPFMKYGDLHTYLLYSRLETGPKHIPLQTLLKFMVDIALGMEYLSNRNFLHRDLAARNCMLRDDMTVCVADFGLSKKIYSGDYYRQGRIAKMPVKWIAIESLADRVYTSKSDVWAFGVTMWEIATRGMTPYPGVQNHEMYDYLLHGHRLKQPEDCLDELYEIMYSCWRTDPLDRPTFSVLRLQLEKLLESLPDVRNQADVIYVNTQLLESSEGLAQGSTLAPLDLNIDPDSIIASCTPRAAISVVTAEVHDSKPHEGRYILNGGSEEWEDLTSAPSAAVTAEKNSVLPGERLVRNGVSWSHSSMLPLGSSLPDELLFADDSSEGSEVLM
In short: as §1

EPHA5 = target: T25, EPHA5 (Homo sapiens, UniProt P54756)
T25 construct: either as full-length or enzymatically active fragments; purchased ProQinase GmbH (Reaction Biology)
T25 sequence (P54756 25-1037): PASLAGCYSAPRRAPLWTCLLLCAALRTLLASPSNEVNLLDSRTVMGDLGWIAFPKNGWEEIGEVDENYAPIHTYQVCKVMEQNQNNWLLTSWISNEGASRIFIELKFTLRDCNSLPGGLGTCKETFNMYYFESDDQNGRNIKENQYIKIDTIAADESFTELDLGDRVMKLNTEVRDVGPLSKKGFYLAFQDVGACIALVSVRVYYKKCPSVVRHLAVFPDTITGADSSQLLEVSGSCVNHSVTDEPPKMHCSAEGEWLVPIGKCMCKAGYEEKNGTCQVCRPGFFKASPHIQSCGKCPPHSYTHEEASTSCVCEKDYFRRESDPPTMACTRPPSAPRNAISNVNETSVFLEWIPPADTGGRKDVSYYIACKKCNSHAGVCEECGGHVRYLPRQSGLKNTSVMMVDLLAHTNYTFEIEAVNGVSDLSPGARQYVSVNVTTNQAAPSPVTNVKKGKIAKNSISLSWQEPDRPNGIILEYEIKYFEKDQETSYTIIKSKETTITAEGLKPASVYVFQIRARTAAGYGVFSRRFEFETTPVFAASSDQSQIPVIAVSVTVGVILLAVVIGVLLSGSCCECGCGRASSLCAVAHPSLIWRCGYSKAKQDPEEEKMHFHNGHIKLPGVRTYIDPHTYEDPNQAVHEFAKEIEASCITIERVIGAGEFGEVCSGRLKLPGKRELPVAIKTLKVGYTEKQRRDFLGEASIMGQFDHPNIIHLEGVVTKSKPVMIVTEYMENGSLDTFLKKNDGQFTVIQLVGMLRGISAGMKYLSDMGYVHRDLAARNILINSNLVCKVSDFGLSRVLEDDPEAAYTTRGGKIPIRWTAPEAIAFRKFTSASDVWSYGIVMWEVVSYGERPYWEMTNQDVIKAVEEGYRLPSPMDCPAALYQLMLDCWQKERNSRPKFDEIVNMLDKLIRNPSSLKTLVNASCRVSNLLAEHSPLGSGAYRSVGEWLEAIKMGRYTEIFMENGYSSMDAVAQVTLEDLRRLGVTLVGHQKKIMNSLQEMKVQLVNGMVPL
In short: as §1

PDK1 = target: T26, PDK1 (Homo sapiens, UniProt O15530)
T26 construct: either as full-length or enzymatically active fragments; purchased ProQinase GmbH (Reaction Biology)
In short: as §1

NEK9 = target: T27, NEK9 (Homo sapiens, UniProt Q8TD19)
T27 construct: either as full-length or enzymatically active fragments; purchased ProQinase GmbH (Reaction Biology)
In short: as §1

FGFR4 = target: T28, FGFR4 (Homo sapiens, UniProt P22455)
T28 construct: either as full-length or enzymatically active fragments; purchased ProQinase GmbH (Reaction Biology)
In short: as §1

SRC = target: T29, SRC (Homo sapiens, UniProt P12931)
T29 construct: either as full-length or enzymatically active fragments; purchased ProQinase GmbH (Reaction Biology)
In short: as §1

MKNK1 = target: T30, MKNK1 (Homo sapiens, UniProt Q9BUB5)
T30 construct: purchased ProQinase GmbH (Reaction Biology)
T30 sequence (Q9BUB5 whole entry): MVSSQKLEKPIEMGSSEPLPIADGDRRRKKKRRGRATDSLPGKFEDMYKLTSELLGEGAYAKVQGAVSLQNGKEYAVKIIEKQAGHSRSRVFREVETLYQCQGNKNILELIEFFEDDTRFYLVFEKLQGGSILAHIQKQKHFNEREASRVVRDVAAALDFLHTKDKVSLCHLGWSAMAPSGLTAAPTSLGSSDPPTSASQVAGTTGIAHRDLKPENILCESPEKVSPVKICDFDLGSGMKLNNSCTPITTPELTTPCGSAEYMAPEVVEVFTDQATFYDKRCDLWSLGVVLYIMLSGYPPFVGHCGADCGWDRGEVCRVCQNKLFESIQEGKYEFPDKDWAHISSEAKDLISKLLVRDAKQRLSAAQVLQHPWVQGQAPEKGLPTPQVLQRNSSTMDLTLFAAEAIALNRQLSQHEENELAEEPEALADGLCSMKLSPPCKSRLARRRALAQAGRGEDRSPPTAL
In short: as §1

MST4 = target: T31, MST4 (Homo sapiens, UniProt Q9P289)
T31 construct: either as full-length or enzymatically active fragments; purchased ProQinase GmbH (Reaction Biology)
In short: as §1

T1 sequence (P07948 whole entry, the tested form may be a part): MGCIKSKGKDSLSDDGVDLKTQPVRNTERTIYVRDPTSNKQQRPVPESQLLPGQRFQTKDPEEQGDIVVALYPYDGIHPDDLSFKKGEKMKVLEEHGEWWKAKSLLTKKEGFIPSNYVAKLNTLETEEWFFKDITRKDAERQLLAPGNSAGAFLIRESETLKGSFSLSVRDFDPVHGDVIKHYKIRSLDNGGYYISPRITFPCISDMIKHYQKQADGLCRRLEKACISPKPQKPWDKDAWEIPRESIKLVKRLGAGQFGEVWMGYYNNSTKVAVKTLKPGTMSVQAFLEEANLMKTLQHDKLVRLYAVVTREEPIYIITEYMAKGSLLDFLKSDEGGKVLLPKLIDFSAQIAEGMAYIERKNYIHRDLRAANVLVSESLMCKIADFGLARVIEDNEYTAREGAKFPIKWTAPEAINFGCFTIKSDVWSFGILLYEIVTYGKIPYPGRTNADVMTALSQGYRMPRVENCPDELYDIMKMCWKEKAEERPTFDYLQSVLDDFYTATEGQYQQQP

C=CC(=O)Nc1ccc(C(=O)N2CC[C@@H](Nc3ncc(C#N)cn3)C2)cc1 [Compound 4, (R)-N-(4-(3-((5-cyanopyrimidin-2-yl)amino)pyrrolidine-1-carbonyl)phenyl)acrylamide]
inhibition at 1 µM (LYN): -8% | inhibition at 1 µM (DYRK3): -3% | inhibition at 1 µM (MATK): -3% | inhibition at 1 µM (CSF1R): 14% | inhibition at 1 µM (ARK5): 10% | inhibition at 1 µM (JAK1): -1% | inhibition at 1 µM (CDK20/CycT1): 5% | inhibition at 1 µM (TRKC): -11% | inhibition at 1 µM (MST2): 0% | inhibition at 1 µM (EPHB2): 1% | inhibition at 1 µM (TGFBR2): 22% | inhibition at 1 µM (SAK): -11% | inhibition at 1 µM (SIK2): -4% | inhibition at 1 µM (FGR): -1% | inhibition at 1 µM (JNK1): 3% | inhibition at 1 µM (PKCdelta): -2% | inhibition at 1 µM (VEGFR2): 12% | inhibition at 1 µM (MKK6 SDTD): 11% | inhibition at 1 µM (PKCbeta2): 7% | inhibition at 1 µM (NEK7): -15% | inhibition at 1 µM (EPHA1): 3% | inhibition at 1 µM (FGFR2): 0% | inhibition at 1 µM (JAK3): -1% | inhibition at 1 µM (MERTK): -8% | inhibition at 1 µM (EPHA5): -8% | inhibition at 1 µM (PDK1): -7% | inhibition at 1 µM (NEK9): -5% | inhibition at 1 µM (FGFR4): 2% | inhibition at 1 µM (SRC): -5% | inhibition at 1 µM (MKNK1): -2% | inhibition at 1 µM (MST4): 6%
